Measured values from patent US9370521B2, “Targeting GLI proteins in human cancer by small molecules” (The Regents of the University of California, priority 2011, dated 2016).

Key:
human NSCLC cell lines = assay: Combination treatment, MTS cell proliferation assay, NSCLC cell lines; assay type: cell-based; conditions: lung cancer cells, 72 hours, Combination Index, FIG. 12
Text: (§1) Another assay for determining the number of viable cells in proliferation or cytotoxicity assays is the MTS assay, a colorimetric method. MTS assay reagents are commercially available (Promega Corp., Madison, Wis.). The reagent contains a tetrazolium compound [3-(4,5-dimethylthiazol-2-yl)-5-(3-carboxymethoxyphenyl)-2-(4-sulfophenyl)-2H-tetrazolium, inner salt; MTS] and an electron coupling reagent (phenazine ethosulfate; PES). PES has enhanced chemical stability, which allows it to be combined with MTS to form a stable solution. The MTS tetrazolium compound (Owen's reagent) is bioreduced by cells into a colored formazan product that is soluble in tissue culture medium. This conversion may be accomplished by NADPH or NADH produced by dehydrogenase enzymes in metabolically active cells. The quantity of formazan product as measured by the absorbance at 490 nm is directly proportional to the number of living cells in culture. Because the MTS formazan product is soluble in tissue culture medium, this assay requires fewer steps than procedures that use tetrazolium compounds such as MTT. The formazan product of MTT reduction is a crystalline precipitate that requires an additional step in the procedure to dissolve the crystals before recording absorbance readings at 570 nm.
(§2) Combination treatments of the Compounds with several chemotherapies: erlotinib (Tarceva®), PI3K inhibitor LY294002, TGFβ inhibitor SB431542, and pemetrexed (Alimta®) were performed in human NSCLC and MM cell lines (FIGS. 12-17). In all experiments, NSCLC and MM cell lines were treated with different doses of each compound or combination for 72 hours, and MTS assays were performed to determine the cell proliferations. Combination Index (CI), calculated by CalcuSyn software (Biosoft, Cambridge, UK), was applied to describe the effect of the combination effects of two compounds, where CI<1 indicates Synergism, CI=1 indicates Additive effects, and CI>1 indicates Antagonism. Student's t-tests were applied for statistical analysis.

[1] = tested on: human MM cell lines (mesothelioma cells); assay: Combination treatment, MTS cell proliferation assay, MM (mesothelioma) cell lines; assay type: cell-based; conditions: 72 hours, Combination Index, FIG. 13
Text: as §1, §2

[2] = Histological examination (H&E) of organs for toxicity; assay type: in vivo; conditions: mice, i.p. two doses daily for 6 days, FIGS. 8-11
Text: (§3) After the in vivo studies were completed, different organs were resected from mice. These organs included liver, lung, heart, kidney, intestines, ovary, brain, spleen, skin, and muscle. The specimens were fixed in 4% buffered formaldehyde, embedded in paraffin, sectioned, and histologically analyzed by hematoxylin and eosin (HE) staining. The HE stained slides were examined by a mouse pathologist for toxicity evidence from all the organs as compared with vehicle controls. In addition, leukocytes (WBC: white blood cell, NE: neutrophil, LY: lymphocyte, MO: monocyte, EO: eosinophil, BA: basophil) from each animal from all treatment groups were collected and leukocyte population was counted through a blood cell counter.
To analyze toxicity of the Compounds 1, 2, 4, and 6 in vivo, each group (three mice) was i.p. injected with two doses of each Compound daily for 6 days, and then major mouse organs, such as liver, spleen, kidney, and heart were resected from the mice. The specimens will be fixed in 4% buffered formaldehyde, embedded in paraffin, sectioned and histologically analyzed by hematoxylin and eosin (H&E) staining.

[3] = Preliminary in vivo toxicity: leukocyte population and body weight after in vivo treatment; set-up: species or system mouse; conditions: mice
Procedure: The administered compounds were tested in vivo in the mouse xenograft model bearing human cancer cells. Briefly, female athymic nude mice strain NCRNU-M (5-10 weeks old, 20-25 grams in weight; Taconic, Germantown, N.Y.) was maintained in pathogen-free conditions. Three human cancer cell lines: NSCLC A549, melanoma MelJuso, and mesothelioma MS-1 were used. Five or ten mice were used in each group and injected s.c. with 3×10^6 cancer cells in the dorsal area in a volume of 100 μl. After inoculation, human cancer cells were allowed to grow in mice for 10-13 days to become visible tumor nodules. Animals were then injected with a compound of the embodiments at a dose of 50 mg/kg body weight (1 mg/mouse per day). Vehicle alone was used as control. The compounds and controls were adjusted in 40 ul volume for i.p. injection in the abdomens of the mice. Injections were performed daily around the same time for 14 days. Tumors were allowed to grow for 1-2 additional weeks after completion of the compound treatments. Tumor size was measured every three to four days, and tumor volumes were calculated using width (x) and length (y) (x^2y/2, where x<y). Throughout this period, general toxicity of the treatments was also monitored by measuring body weight of the mice. Data was presented as mean values (±S.D.).
as §3
As preliminary in vivo toxicity study of Compounds 1, 2, 4, and 6, it was examined if there were changes of leukocyte population and loss of body weight in the mice after the treatment. At the completion of the in vivo studies as described herein, leukocytes (WBC: white blood cell, NE: neutrophil, LY: lymphocyte, MO: monocyte, EO: eosinophil, BA: basophil) from each animal from all treatment groups were collected and leukocyte population was counted through a blood cell counter. Body weights of control groups (n=10) and the treated group (n=10) were measured using a scale during the course of drug administration. […] In an additional toxicity study, effect of different doses of compounds 4 and 6 on the body weight of mice was examined. The compounds were i.p. injected in the abdomens at 3 different doses: 25, 50, and 100 mg/kg body weight to mice (3 mice per dosing group) for 6 consecutive days.

Wnt signaling pathway = assay: Quantitative real-time RT-PCR of Wnt pathway genes in xenograft tumors; assay type: in vivo, mouse; conditions: Melanoma tumor xenograft, compared to controls, FIG. 4
Procedure: (§4) Total RNA was isolated using Qiagen RNeasy Mini Kit (Valencia, Calif.). Hybridization probes and primers (Table 1) were purchased from Applied Biosystems (ABI, Foster City, Calif.). cDNA synthesis and Taqman® PCR were performed according to the manufactures' protocols. The gene expression was assayed in triplicate in ABI 7300 Real-time PCR System. Samples were normalized to their housekeeping gene GAPDH and then calculated by using 2^−dCt method.
To examine whether Compounds 1, 2, 4, and 6 suppressed tumor growth through inhibition of the Wnt signaling pathway in vivo, expression of the key components and direct target genes of the Wnt pathway (e.g. Wnt2, Axin2, EGFR, and Cyclin D1) were analyzed by quantitative real-time RT-PCR using total RNA isolated from the xenograft tumors. GAPDH served as a control. This RT-PCR analysis was performed using a “pooled” tumor from two randomly selected mice of each group with reasonable size tumors. […] The results are shown in FIG. 4, where C is control and V is vehicle.

[4] = tested on: Hedgehog signaling pathway; assay: Quantitative real-time RT-PCR of Hh pathway genes in xenograft tumors; assay type: in vivo, mouse; conditions: Melanoma tumor (MelJuso) xenograft, pooled tumor from two mice, FIG. 4
Procedure: as §4
To examine whether Compounds 1, 2, 4, and 6 suppressed tumor growth through inhibition of the Hedgehog signaling pathway in vivo, expression of the key components and direct target genes of the Hh pathway (e.g. Gli1, Gli2, Gli3, HHIP and Cyclin D1) were analyzed by quantitative real-time RT-PCR using total RNA isolated from the xenograft tumors. GAPDH served as a control. This RT-PCR analysis was performed using a “pooled” tumor from two randomly selected mice of each group with reasonable size tumors. […] The results are shown in FIG. 4, where C is control and V is vehicle.

CCCC1C(C(=O)NCCCC(C)(C)CO)C(c2ccc(F)cc2)=NN1c1ccccc1 (stereo not shown) [Compound 4, 3-(4-fluoro-phenyl)-1-phenyl-5-propyl-4,5-dihydro-1H-pyrazole-4-carboxylic acid (5-hydroxy-4,4-dimethyl-pentyl)-amide]
Combination effect with erlotinib (Tarceva) (human NSCLC cell lines): synergy
Combination effect with erlotinib (Tarceva) [1]: synergy
Toxicity in organs (liver, spleen, kidney, heart), H&E histology [2]: No noticeable toxicity
Changes of leukocyte population ([3]; at completion of the in vivo studies, FIG. 5): No noticeable changes
Loss of body weight ([3]; during the course of drug administration, FIG. 6): No noticeable changes of leukocyte population or loss of the body weight
Expression of the key indicator of canonical Wnt activation in tumor (Wnt signaling pathway): significantly down-regulated
Hh signaling (expression of Gli1, Gli2, Gli3, HHIP, Cyclin D1) in tumor [4]: inhibited
